Patent US20210337847A1, “Mint Flavor Compositions” (The Procter & Gamble Company, priority 2020, published 2021)

Tests used:
[1] = Expert sensory testing of racemic menthol versus (−)-menthol in a toothpaste formulation (CREST Cavity) with a standard spearmint flavor; format: in vivo
Description: In separate, unpublished internal experiments, perceptual experiences of racemic menthol are quantified via expert sensory testing. The use of a standard spearmint flavor (minimizing extra menthol contribution) compared racemic menthol to (−)-menthol in a toothpaste formulation (CREST Cavity). There are several sensory observations taken from these experiments. […] These aromatic notes appear during brushing and disappear after 5-10 minutes post expectoration and are more pronounced as concentrations increase.

[2] = Comparison of cooling attributes of (−)-menthol and racemic menthol in a toothpaste (CREST Cavity formulation); format: in vivo; conditions: for Potency compared to L-Menthol / Time Point at Maximum Cooling / Maximum Cooling (0-60 scale) / Maximum Longevity: CREST Cavity formulation; for Maximum Cooling (0-60 scale): 60 = greatest amount of cooling, 0 = least; for Maximum Longevity: longevity of cooling; for EC 50: concentration of coolant giving 50% of its maximal cooling
Source text: The following data helps support the use of racemic menthol to reduce costs of mint flavor compositions herein described. From internal unpublished research, Table B compares replacing (−)-menthol with a racemic menthol in a 1:1 in a toothpaste formulation. Such a direct replacement is not preferred given the reduced cooling profile and olfactory differences; however, a portion of L-menthol is preferably replaced by racemic-menthol to gain cost efficiency while minimizing impact to the overall mint flavor profiles.
Table B is a comparison of attributes between (-)-menthol and racemic menthol in a toothpaste context (using CREST Cavity formulation).
This value represents the concentration of a coolant where 50% of its maximal cooling is observed.

SMILES | Less potent than (−)-menthol for cooling [1] | Potency compared to L-Menthol [2] | Time Point at Maximum Cooling [2] [min] | Maximum Cooling (0-60 scale) [2] | Maximum Longevity [2] | EC 50 [2]
CC1CCC(C(C)C)C(O)C1 (racemic) [Racemic Menthol, racemic menthol] | 25-30% | ~0.65-0.7x | ~1 | 35 | Up to 20 minutes | 1,250 to 1,500 parts per million
CC1CCC(C(C)C)C(O)C1 (single isomer, unassigned; (-)) [(−)-Menthol, (−)-menthol] | – | 1x | ~5 | 40 | Up to 25 minutes | 1,750 to 2,250 parts per million
